Measured values as given in patent publication US4321271A, “Heterocyclic and aliphatic growth promotors” (Beecham Group Limited, priority 1979, dated 1982).
Where two headings read alike, the source gives them in different places.

How the values were obtained:
rumen fluid = test: In vitro incubation of buffered rumen fluid: volatile fatty acids, methane inhibition and hydrogen; format: cell-based, sheep; conditions: 20 h; for % hydrogen present: headspace gas; for Molar % VFA Acetate / Molar % VFA Butyrate / Molar % VFA Propionate / TVFA: sheep rumen fluid
Experimental: The compounds were tested for their ability to reduce or inhibit methane production and to enhance propionate formation. The method used is as follows:
The screening system is in vitro incubation of buffered rumen fluid with, or without, the addition of the test compound.
Rumen fluid is removed by suction from two rumen-fistulated sheep, just before feeding. The fluid is strained and mixed. The incubation is for twenty hours in a shaking water-bath at 39° C. Each incubation flask contains: 30 ml McDougall's bicarbonate buffer-pH 6.7-6.9, 10 ml strained rumen fluid, 200 mg substrate (the substrate is a ground sample of the diet on which the sheep has been fed) and 1 ml 10% aqueous ethanol containing 0.2% Tween 80 and the compound under examination. Samples are taken at the end of the incubation period for analysis of headspace gases and volatile fatty acids, by g.l.c. […]

methanogenesis = test: In vivo "gas collection screen" in sheep (respirometer): methanogenesis and hydrogen evolution; conditions: sheep 50 kg, in diet, 75 mg/day, 5 week period
Experimental: In vivo Studies in a "gas collection screen":
A Group of 4, 50 kg Sheep were fed diets containing the compound of Example 6 over 5 week period. A different sheep from each group was put into a respirometer for 24 hours each day. Each sheep was thus monitored once in every […]. Gas flow was maintained by a peristatic pump and measured using a commercial gas meter and a sub-sample collected in a butyl-rubber inner tube. Gas analysis was carried out by gas chromatograph using a R/E 204 gas chromatograph with both electron capture and […] detectors.
During a run-in control period it was found the sheep produced 19.2±0.4 liters methane/day and not more than 1.5 liters Hydrogen/day.
The compounds were stable in the feed over the period of the study. By feeding measured amounts to the sheep (no refusals) it was possible to "dose" each sheep with 75 mg/day.

[1] = Ovis aries, read-out: VFA production % difference from control, Acetate
[2] = Ovis aries, read-out: VFA production % difference from control, Butyrate
[3] = Ovis aries, read-out: VFA production % difference from control, Propionate
[4] = Ovis aries, read-out: VFA production % difference from control, TVFA
[5] = Ovis aries, 10 ppm/flask, 39° C

| SMILES | % hydrogen present (rumen fluid; 10 ppm/flask, 39° C) | Molar % VFA Acetate (rumen fluid; 10 ppm/flask, 39° C) | Molar % VFA Butyrate (rumen fluid; 10 ppm/flask, 39° C) | Molar % VFA Propionate (rumen fluid; 10 ppm/flask, 39° C) | TVFA (rumen fluid; 10 ppm/flask, 39° C) | percent change in VFA production versus control at 10 ppm (rumen fluid; [1]) | percent change in VFA production versus control at 10 ppm (rumen fluid; [2]) | percent change in VFA production versus control at 10 ppm (rumen fluid; [3]) | percent change in VFA production versus control at 10 ppm (rumen fluid; [4]) | inhibition at 10 ppm (rumen fluid; [5]) | percent change in VFA production versus control at 5 µg/mL (rumen fluid; [1]) | percent change in VFA production versus control at 5 µg/mL (rumen fluid; [2]) | percent change in VFA production versus control at 5 µg/mL (rumen fluid; [3]) | percent change in VFA production versus control at 5 µg/mL (rumen fluid; [4]) | inhibition at 5 µg/mL (rumen fluid; Ovis aries, tested at 5 ppm level, 39° C) | % hydrogen present (rumen fluid; tested at 5 ppm level, 39° C) | % inhibition of methanogenesis (methanogenesis) | Hydrogen evolution (methanogenesis) |
| --- | --- | --- | --- | --- | --- | --- | --- | --- | --- | --- | --- | --- | --- | --- | --- | --- | --- | --- |
| CN1CCN(CC(O)C(Cl)(Cl)Cl)CC1 (stereo not drawn) [Compound A, reference compound] | 0.062% | 65.3% | 9.13% | 21.9% | 56.7 μM/ml | -35% | 9% | 19.9% | -22.6% | 50.6% |  |  |  |  |  |  |  |  |
| CNCC(O)C(Cl)(Cl)Cl (stereo not drawn) [Example 1, 1,1,1-Trichloro-3-methylaminopropan-2-ol] | 1.43% | 55.3% | 12.1% | 30.4% | 40.6 μM/ml | -44.7% | -29.7% | 22.3% | -28.2% | 100% |  |  |  |  |  |  |  |  |
| CN(C)CC(O)C(Cl)(Cl)Cl (stereo not drawn) [Example 2, 1,1,1-Trichloro-3-dimethylaminopropan-2-ol] | 1.61% | 55.6% | 12.2% | 29.7% | 43.9 μM/ml | -35.5% | -18.1% | 31.5% | -18.4% | 100% |  |  |  |  |  |  |  |  |
| CCN(CC)CC(O)C(Cl)(Cl)Cl (stereo not drawn) [Example 3, 1,1,1-Trichloro-3-diethylaminopropan-2-ol] | 1.27% | 54.2% | 12.4% | 30.0% | 43.3 μM/ml | -42.3% | -20% | 26.8% | -23% | 100% |  |  |  |  |  |  |  |  |
| CC(C)CNCC(O)C(Cl)(Cl)Cl (stereo not drawn) [Example 4, 1,1,1-Trichloro-3-isobutylaminopropan-2-ol] | 1.07% | 55.3% | 12.3% | 30.0% | 40.1 μM/ml | -45.7% | -29% | 18.8% | -29.4% | 100% |  |  |  |  |  |  |  |  |
| OC(CNC1CCCCC1)C(Cl)(Cl)Cl (stereo not drawn) [Example 5, 1,1,1-Trichloro-3-cyclohexylaminopropan-2-ol] | 1.01% | 56.7% | 10.21% | 31.1% | 44.2 μM/ml | -31.1% | 14.6% | 32.5% | -11.8% | 100% |  |  |  |  |  |  |  |  |
| OC(CN1CCCCC1)C(Cl)(Cl)Cl (stereo not drawn) [Example 6, 1,1,1-Trichloro-3-(N-piperidino)propan-2-ol] | 1.34% | 57.7% | 9.64% | 30.7% | 45.3 μM/ml | -25.8% | 7.9% | 34.1% | -8.3% | 100% | -19.1% | 27.7% | 23% | -7.1% | 32.2% | 0.09% | 9.1% | 2.1 liters/24h |
| OC(CN1CCCC1)C(Cl)(Cl)Cl (stereo not drawn) [Example 7, 1,1,1-Trichloro-3-(N-pyrrolidino)propan-2-ol] | 1.18% | 57.7% | 9.67% | 30.5% | 44.6 μM/ml | -27.6% |  | 30.5% | -10.4% | 100% |  |  |  |  |  |  |  |  |
